Laboratory results published in article PMC7915940, “Synthesis, Antitumor and Antibacterial Studies of New Shortened Analogues of (KLAKLAK)2-NH2 and Their Conjugates Containing Unnatural Amino Acids” (Molecules, 2021).
Like-named read-outs stand apart in the source and are kept apart here. Non-standard residues stand in square brackets, D forms with d. Residues, ends and D or L forms follow the SMILES beside them. *: point of attachment. Acetyl(1,8-naphthalimido) = O=C1c2cccc3cccc(c23)C(=O)N1CC(=O)*; Caffeoyl = O=C(/C=C/c1ccc(O)c(O)c1)*; Nle = CCCC[C@H](N)C(=O)O; βAla = NCCC(=O)O

What was measured:
MDA-MB-231 cells = assay type: cell-based, human; details: 72 h
Description: (§1) The compounds were studied for antiproliferative activity by standard MTT dye reduction assay. Cell cultures from different cell line types (MCF-10A, MCF-7 and MDA-MB-231) were incubated with the test substances at a concentration of 15 to 2000 μM for 72 h. The antiproliferative activity expressed in % relative to the negative control was determined. The obtained results are shown on Figure 2. MCF-10A is a reliable model for normal human mammary epithelial cells, which serves as a control in experiments to determine antitumor activity. The IC50 values, found in MCF-10A, are used to calculate a selective index (SI), which assesses the potential of a substance to be used as an antitumor agent. We used the following formula to calculate the selective index SI = IC50 of MCF-10A / IC50 of tumor cells. The highest selective index with respect to MCF-7 is shown by the substances: Si3 (SI = 8.35), Si11 (SI = 2.62) and Si1 (SI = 1.24).
(§2) The antiproliferative activity testing was performed on cell cultures from several human cell lines using the standard MTT-dye reduction assay, described by Mosmann. The assay is based on the metabolism of the tetrazolium salt MTT to insoluble formazan by mitochondrial reductases. The formazan concentration can be determined spectrophotometrically. The measured absorption is an indicator of cell viability and metabolic activity. Cell lines: mammary gland type A adenocarcinoma ER+, PR+, HER2- (MCF-7), triple-negative breast cancer ER-, PR-, HER2- (MDA-MB-231) and breast, non-tumorigenic epithelial cell line (MCF-10A) were used in experiments. The cell lines were routinely grown as monolayers in 75 cm^2 tissue culture flasks under standard conditions (described above). Cells were plated at a density of 1 × 10^3 cells in 100 µL in each well of 96-well flat-bottomed microplates and allowed to adhere for 24 h before treatment with test compounds. A concentration range from 15 to 2000 μM was applied for 72 h. The formazan absorption was registered using a microplate reader at λ = 540 nm. Antiproliferative activities were expressed as IC50 values (concentrations required for 50% inhibition of cell growth), calculated using non-linear regression analysis (GraphPad Software, San Diego, CA, USA).

[1] = In vitro cytotoxicity testing (3T3 NRU test); assay type: cell-based; details: mouse
Description: The newly synthesized compounds were studied for cytotoxicity by standard method (3T3 NRU-test). The cells were incubated with the test substances at a concentration of 30 to 4000 μM for 24 h. The cytotoxicity expressed, in % relative to the negative control was determined.
The cytotoxicity testing was performed as described by Borenfreund et al. and the latest modification of the validated BALB/3T3 clone A31 Neutral Red Uptake Assay (3T3 NRU test) for cytotoxicity testing. BALB/3T3, clone A31 mouse embryo cells were grown as monolayer in 75 cm^2 tissue culture flasks in DMEM high-glucose (4.5 g/L), supplemented with 10% FBS and antibiotics (Sigma-Aldrich, Schnelldorf, Germany). Cultures were maintained at 37.5 °C in a humidified atmosphere under 5% CO2. Cells were plated at a density of 1 × 10^4 cells in 100 μL culture medium in each well of 96-well flat-bottomed microplates (Biologix, Lenexa, KS, USA) and allowed to adhere for 24 h. The test compounds, dissolved in DMSO and diluted in culture medium to concentration range 30 to 4000 μM were then added and the cell cultures were incubated for additional 24 h. […] After treatment with Neutral Red medium, washing and treatment with the Ethanol/Acetic acid solution (NR Desorb), the absorption was measured on a TECAN microplate reader (TECAN, Grödig, Austria) at wavelength 540 nm.

MCF-10A cells = assay type: cell-based, human; details: 72 h
Description: as §1, §2

MCF-7 cells = assay type: cell-based, human; details: for selectivity with respect to the studied tumor cell lines (in words): MCF-7 and MDA-MB-231 versus MCF-10A
Description: as §1, §2

Escherichia coli K12 407 = assay type: cell-based; details: for antibacterial effect, zones free of microbial growth (in words): agar diffusion, E. coli K12 407
Description: Antibacterial properties of the obtained new peptides and their conjugates were tested against E. coli K12 407 strain. Antibacterial activity of tested compounds was proven through appear of free zone around the loaded disk-paper by means of agar-diffusion method (Figure 3).
All newly synthesized derivatives of (KLAKLAK)2-NH2 at two concentrations 10 μM and 20 μM, were tested against facultative anaerobic gram-negative Esherichia coli NBIMCC K12 407. The strains were obtained from the culture collection of Bulgarian National Bank for Industrial Microorganisms and Cell Cultures (Sofia, Bulgaria) and were cultured in Luria-Bertani (LB) medium (Mumbai, India). The microbiological tests were performed using the agar diffusion method. The overnight pure cultures from tested strains were prepared in liquid LB-medium. A single colony was used for inoculating the liquid LB medium in order to maintain initial bacterial concentration of 1 × 10^7 cfu/mL. 100 µL of bacterial suspensions were seeded on agar plates with solid LB-medium. After 30 min, sterile paper disks 6 mm in diameter were soaked with tested samples in amount of 6 µL and placed on the agar petri dishes surface. The plates were incubated for 24 h at 37 °C. The appeared inhibition zones and their size were measured. The sterile paper disks soaked with water was used as blank. Mean values were calculated by performing the experiments in triplicates.

[2] = MDA-MB-231, MTT, 15 to 2000 μM, read-out: IC50 of Mean ± SD, Antiproliferative Activity, MDA-MB-231

| Compound | IC50 (MDA-MB-231 cells; [2]) [µM] | IC50 at 24 h ([1]; BALB/3T3 cells, NRU, 24 h, 30 to 4000 μM, read-out: IC50 of Mean ± SD, Cytotoxicity, BALB/3T3) [µM] | IC50 (MCF-10A cells; MCF-10A, MTT, 15 to 2000 μM, read-out: IC50 of Mean ± SD, Antiproliferative Activity, MCF-10A) [µM] | IC50 (MCF-7 cells; MCF-7, MTT, 72 h, 15 to 2000 μM, read-out: IC50 of Mean ± SD, Antiproliferative Activity, MCF-7) [µM] | selective index (SI) with respect to MCF-7 (MCF-7 cells; SI = IC50 of MCF-10A / IC50 of MCF-7) | Average inhibition zones size (Escherichia coli K12 407; 20 μM, E. coli K12 407, 24 h at 37 °C, three replicates ± SD) [mm] | antibacterial effect, zones free of microbial growth (in words) (Escherichia coli K12 407) | IC50 at 24 h [1] [µM] | IC50 (MDA-MB-231 cells) [µM] | IC50 (MCF-10A cells) [µM] | IC50 (MCF-7 cells; 72 h) [µM] | selectivity with respect to the studied tumor cell lines (in words) (MCF-7 cells) | selective index (SI) with respect to MCF-7 (MCF-7 cells; 72 h) | activity against Escherichia coli K12 407 (in words) (Escherichia coli K12 407; 20 μM) | melting point [°C] |
| --- | --- | --- | --- | --- | --- | --- | --- | --- | --- | --- | --- | --- | --- | --- | --- |
| N.N.[Cl][Pt][Cl] [Cisplatin, reference compound] | 1.83 ± 0.13 | – | – | – | – | – | – | – | – | – | – | – | – | – | – |
| CC(C)C[C@H](NC(=O)[C@H](CCCCN)NC(=O)[C@H](C)NC(=O)[C@H](CC(C)C)NC(=O)[C@H](CCCCN)NC(=O)[C@H](CCCCN)NC(=O)[C@H](C)NC(=O)[C@H](CC(C)C)NC(=O)[C@H](CCCCN)NC(=O)[C@H](C)NC(=O)[C@H](CC(C)C)NC(=O)[C@@H](N)CCCCN)C(=O)N[C@@H](C)C(=O)N[C@@H](CCCCN)C(N)=O [Si1, (KLAKLAK)2-NH2] | 746 ± 7.6 | 365 ± 4.08 | 154 ± 6.53 | 124 ± 8.12 | 1.24 | 5 ± 0.15 | clear zones free of microbial growth | – | – | – | – | – | – | – | – |
| CC(C)C[C@H](NC(=O)[C@H](CCCCN)NC(=O)CCNC(=O)[C@H](CC(C)C)NC(=O)[C@H](CCCCN)NC(=O)CN1C(=O)c2cccc3cccc(c23)C1=O)C(=O)NCCC(=O)N[C@@H](CCCCN)C(N)=O [Si2, 1,8-naphthalimideG-KLβAKLβAK-NH2] ({Acetyl(1,8-naphthalimido)}-KL[βAla]KL[βAla]K-NH2) | – | – | – | – | – | – | – | 1430 ± 48.4 | 840 ± 21.2 | 666 ± 20.9 | 663 ± 20 | no significant SI is observed | – | – | – |
| CC(C)C[C@H](NC(=O)[C@H](CCCCN)NC(=O)CCNC(=O)[C@H](CC(C)C)NC(=O)[C@@H](N)CCCCN)C(=O)NCCC(=O)N[C@@H](CCCCN)C(N)=O [Si3, KLβAKLβAK-NH2] (H-KL[βAla]KL[βAla]K-NH2; N-terminus assumed) | – | – | – | – | – | – | – | 2870 ± 130 | > 2000 | 1470 ± 104 | 176 ± 4.66 | significant selective index | 8.33 | – | – |
| CC(C)C[C@H](NC(=O)[C@H](CCCCN)NC(=O)[C@H](C)NC(=O)[C@H](CC(C)C)NC(=O)[C@@H](N)CCCCN)C(=O)N[C@@H](C)C(=O)N[C@@H](CCCCN)C(N)=O [Si6, KLAKLAK-NH2] (H-KLAKLAK-NH2; N-terminus assumed) | – | – | – | – | – | – | clear zones free of microbial growth | > 4000 | > 2000 | > 2000 | > 2000 | do not show selectivity | – | moderate activity | – |
| CC(C)C[C@H](NC(=O)[C@H](CCCCN)NC(=O)CN1C(=O)c2cccc3cccc(c23)C1=O)C(=O)N[C@@H](C)C(=O)N[C@@H](CCCCN)C(=O)N[C@@H](CC(C)C)C(=O)N[C@@H](C)C(=O)N[C@@H](CCCCN)C(N)=O [Si7, 1,8-naphthalimideG-KLAKLAK-NH2] ({Acetyl(1,8-naphthalimido)}-KLAKLAK-NH2) | – | – | – | – | – | – | – | 3420 ± 51.3 | > 2000 | 1140 ± 64.5 | 1200 ± 132 | do not show selectivity | – | – | – |
| CC(C)C[C@H](NC(=O)[C@H](CCCCN)NC(=O)/C=C/c1ccc(O)c(O)c1)C(=O)N[C@@H](C)C(=O)N[C@@H](CCCCN)C(=O)N[C@@H](CC(C)C)C(=O)N[C@@H](C)C(=O)N[C@@H](CCCCN)C(N)=O [Si8, Caf-KLAKLAK-NH2] (Caffeoyl-KLAKLAK-NH2) | – | – | – | – | – | – | clear zones free of microbial growth | 710 ± 11.9 | 514 ± 26.8 | 136 ± 7.09 | 129 ± 8.03 | do not show selectivity | – | – | 154 |
| CC(C)C[C@H](NC(=O)[C@H](CCCCN)NC(=O)/C=C/c1ccc(O)c(O)c1)C(=O)NCCC(=O)N[C@@H](CCCCN)C(=O)N[C@@H](CC(C)C)C(=O)NCCC(=O)N[C@@H](CCCCN)C(N)=O [Si11, Caf-KLβAKLβAK-NH2] (Caffeoyl-KL[βAla]KL[βAla]K-NH2) | – | – | – | – | – | – | – | 742 ± 18.5 | 1090 ± 70.7 | 597 ± 53 | 229 ± 7.18 | significant selective index | 2.62 | – | – |
| CCCC[C@H](NC(=O)[C@H](CCCCN)NC(=O)[C@H](C)NC(=O)[C@H](CCCC)NC(=O)[C@@H](N)CCCCN)C(=O)N[C@@H](C)C(=O)N[C@@H](CCCCN)C(N)=O [Si13, KnLAKnLAK-NH2] (H-K[Nle]AK[Nle]AK-NH2; N-terminus assumed) | – | – | – | – | – | – | – | > 4000 | > 2000 | > 2000 | 1700 ± 112 | – | – | – | – |
| CCCC[C@H](NC(=O)[C@H](CCCCN)NC(=O)CN1C(=O)c2cccc3cccc(c23)C1=O)C(=O)N[C@@H](C)C(=O)N[C@@H](CCCCN)C(=O)N[C@@H](CCCC)C(=O)N[C@@H](C)C(=O)N[C@@H](CCCCN)C(N)=O [Si14, 1,8-naphthalimideG-KnLAKnLAK-NH2] ({Acetyl(1,8-naphthalimido)}-K[Nle]AK[Nle]AK-NH2) | – | – | – | – | – | – | clear zones free of microbial growth | 2890 ± 61.4 | 1050 ± 49.8 | 631 ± 51.2 | 593 ± 60.3 | No selectivity | – | moderate activity | – |
| CCCC[C@H](NC(=O)[C@H](CCCCN)NC(=O)/C=C/c1ccc(O)c(O)c1)C(=O)N[C@@H](C)C(=O)N[C@@H](CCCCN)C(=O)N[C@@H](CCCC)C(=O)N[C@@H](C)C(=O)N[C@@H](CCCCN)C(N)=O [Si15, Caf-KnLAKnLAK-NH2] (Caffeoyl-K[Nle]AK[Nle]AK-NH2) | – | – | – | – | – | – | – | 1514 ± 12.2 | 346 ± 7.91 | 147 ± 7.96 | 140 ± 7.12 | No selectivity | – | – | – |
